Assay results as given in patent publication US20100204112A1, “USE OF TYR-W-MIF-1 AND UROCORTIN 2 AS THERAPEUTIC AGENTS” (priority 2007, published 2010).
Where no end group is shown, it is not given here.

What was measured:
HIV-1IIIB = test: HIV-1 antiviral assay in CEM-SS cells (MTS readout)
HCMV strain AD169 = test: HCMV plaque formation assay in MRC-5 cells; details: 10 micrograms per ml, 7-10 days
[1] = test system: Primary Human endothelial cells (HUVEC); test: Endothelial cell migration assay; details: 10 micrograms per ml, 22 hours, combination peptide 1:peptide 2 0.95 mole:1.05 mole
Protocol: Primary Human endothelial cells (HUVEC) were seeded in insert chambers with 3 micrometer pore size of multi-transwell plate for 6 hours at 37° C. in Endothelial Cell Basal Medium (EBM) supplemented with 0.1% bovine serum albumin. Thereafter, designated concentration of testing peptides -10 micrograms per ml—was added in duplicate wells. The endothelia were allowed to migrate for 22 hours at 37° C., then, migrated cells were fixed and stained with Hoechst 33342 dye. Images of 3 fields per insert were taken and the number of migrated cells per field were quantified using the ImageProPlus software. Data were analyzed for the average number of the migrated cells and standard deviation of six data points for each treatment condition. […] Statistic p values were computed using the Student's t-test.

RAW 264.7 cells = test: Phagocytosis assay (Fluorescein-labeled Escherichia coli, flow cytometry); details: 10 micrograms per ml, combination peptide 1:peptide 2 1.10 mole:0.90 mole
Protocol: RAW 264.7 (Mouse leukaemic monocyte macrophage cell line) cells were obtained from ATCC and grown in RPMI 1640 medium containing 10% FBS. Cells were incubated in 12×75 mm tubes at 37° C. with test peptides—10 micrograms per ml—for 30 min prior to adding Fluorescein-labeled Escherichia coli bacteria as the agent to be ingested. After the cells were incubated for additional 60 min at 37° C. and allowed to ingest the Fluorescein-labeled Escherichia coli bacteria, cells were fixed with 1% paraformaldehyde. The samples were then analyzed by flow cytometry to determine the amount of phagocytosis as a function of brightness (the greater the phagocytic activity, the more fluorescence in the macrophage population). Data are reported as % positive and the mean fluorescence intensity (MFI) of positively stained cells.

HUVEC = test: Endothelial tube formation assay; details: 10 micrograms per ml, 20 hours, combination peptide 1:peptide 2 0.95 mole:1.05 mole
Protocol: The endothelial tube formation assay is based on the ability of endothelial cells to form three-dimensional capillary-like tubular structures when cultured on a gel of basement membrane extract. […] Pre-labeled HUVEC with Calcein AM were seeded in a 96-well culture plate coated with extracellular metrix (Chemicon international Cat. ECM625) and treated with test peptides—10 micrograms per ml—in full growth medium. Positive control was vehicle only. The endothelial cells were allowed to form tubes foe 20 hours and were then examined under an inverted fluorescent microscope. Duplicate wells for each treatment were photographed and quantitatevily analyzed for an average tubule length using image analysis software ImageProPlus. Raw data were expressed as average tubule lengths in pixels ±standard deviation. Statistic p values were computed using the Student's t-test.

[2] = test system: hepatitis B virus (HBV) ayw strain; test: HBV experimental assay system (HepG2-2.2.15, TaqMan PCR of secreted HBV DNA); type: cell-based; details: 10 micrograms per ml; HepG2-2.2.15 cells; six days; HBV DNA by TaqMan PCR
Excerpt: HepG2-2.2.15 is a stable cell line containing the hepatitis B virus (HBV) ayw strain genome (ATCC Cat. No. CRL-11997). Antiviral compounds blocking any late step of viral replication such as transcription, translation, pregenome encapsidation, reverse transcription, particle assembly and release can be identified and characterized using this cell line. In this assay, an active compound will reduce the production of secreted HBV from cells, measured by utilizing real time quantitative PCR (TaqMan) assay to directly and accurately measure HBV DNA copies.
HepG2-2.2.15 cells were plated in 96-well microtiter plates. After 16-24 hours the confluent monolayer of HepG2-2.2.15 cells was washed and the medium was replaced with complete medium containing test peptides—10 micrograms per ml—in duplicate. […] Six days following the initial administration of the peptides, the cell culture supernatants was collected, treated with pronase and DNAse and then used in a real-time quantitative TaqMan PCR assay. The PCR-amplified HBV DNA was detected in real-time by monitoring increases in fluorescence signals that result from the exonucleolytic degradation of a quenched fluorescence probe molecule that hybridizes to the amplified HBV DNA. […] Antiviral activity was calculated from the reduction in HBV DNA levels (% virus control). […]

spleen cells = test: Th1/Th2 cytokine profiling assay (Ovalbumin-restimulated spleen cells, CBA Kit); type: cell-based, Balb/c mice; details: 10 micrograms per ml; Ovalbumin restimulation; 72 hours
Excerpt: The Balb/c mice (originated in 1923, it is a popular strain and is used in many different research disciplines. Also classified as an inbred from the production of 20 or more successive brother-sister matings, the Balb/c mouse is albino and small in size) were immunized on Days 1, 15, and 29 with Ovalbumin (Ovalbumin is the main protein found in egg white, commonly used to stimulate an immunological reaction in test animals) in PBS (5 micrograms/injection). On day 50, spleens of the mice were harvested (3 weeks after last boost with Ovalbumin). […] Thereafter, additional Ovalbumin was added to the cells at 10 micrograms/ml for in vitro restimulation of the cells. 72 hours later, cell supernatants were harvested and assayed using the Becton Dickinson Mouse Th1/Th2 Cytokine CBA Kit. This kit can be used to measure Interleukin-2 (IL-2), Interleukin-4 (IL-4), Interleukin-5 (IL-5), Interferon-γ (IFN-γ), and Tumor Necrosis Factor-α (TNF-α) protein levels in a single sample.

Molecule: Cc1cn([C@H]2C[C@H](N=[N+]=[N-])[C@@H](CO)O2)c(=O)[nH]c1=O [AZT]
- antiviral activity of positive control compounds (HIV-1) (HIV-1IIIB): expected levels of antiviral activity

Molecule: CC(C)(C)NC(=O)[C@@H]1CN(Cc2cccnc2)CCN1C[C@@H](O)C[C@@H](Cc1ccccc1)C(=O)N[C@H]1c2ccccc2C[C@H]1O [indinavir]
- antiviral activity of positive control compounds (HIV-1) (HIV-1IIIB): expected levels of antiviral activity

Molecule: His-Pro-Gly-Ser-Arg-Ile-Val-Leu-Ser-Leu-Asp-Val-Pro-Ile-Gly-Leu-Leu-Gln-Ile-Leu-Leu-Glu-Gln-Ala-Arg-Ala-Arg-Ala-Ala-Arg-Glu-Gln-Ala-Thr-Thr-Asn-Ala-Arg-Ile-Leu-Ala-Arg-Val-NH2 (HPGSRIVLSLDVPIGLLQILLEQARARAAREQATTNARILARV-NH2) [Peptide 2]
- inhibition of HCMV plaque formation as compared to the virus control (HCMV strain AD169): did not inhibit
- inhibition of the migration of human endothelial cells [1]: 15%
- effect on the phagocytic activity of murine macrophages (increase) (RAW 264.7 cells): 31.4%
- inhibition of the tube formation of endothelial cells (HUVEC): 35%
- inhibition of HBV replication as compared to the virus control infection [2]: no effect
- IFNγ spleen cells; TH1 response (% of control) (spleen cells): 105.6 % of control
- IL-2 spleen cells (% of control) (spleen cells): 66.8 % of control
- IL-4 spleen cells; TH2 response (% of control) (spleen cells): 68.9 % of control
- IL-5 spleen cells; TH2 response (% of control) (spleen cells): 67.0 % of control
- TNF-a spleen cells; TH1 response (% of control) (spleen cells): 125.6 % of control

Molecule: Tyr-Pro-Trp-Gly-NH2 (YPWG-NH2) [Peptide 1]
- inhibition of HCMV plaque formation as compared to the virus control (HCMV strain AD169): did not inhibit
- inhibition of the migration of human endothelial cells [1]: did not inhibit
- effect on the phagocytic activity of murine macrophages (increase) (RAW 264.7 cells): no inhibitory or activating effects
- inhibition of the tube formation of endothelial cells (HUVEC): 40%
- inhibition of HBV replication as compared to the virus control infection [2]: 14.7%
- IFNγ spleen cells; TH1 response (% of control) (spleen cells): 62.0 % of control
- IL-2 spleen cells (% of control) (spleen cells): 83.2 % of control
- IL-4 spleen cells; TH2 response (% of control) (spleen cells): 77.4 % of control
- IL-5 spleen cells; TH2 response (% of control) (spleen cells): 57.1 % of control
- TNF-a spleen cells; TH1 response (% of control) (spleen cells): 82.3 % of control
